From ChEMBL document CHEMBL1148324 (J Med Chem, 2004) come the findings set out here.

For test [1], the target named is T1, Sulfonylurea receptors; K-ATP channels (Homo sapiens, UniProt O60706+Q09428+Q14654+Q15842). In words: Evaluated for K-ATP activity in terms of stable twitch response through field-stimulated landrace pig detrusor assay. Format: functional, Sus scrofa. Conditions: target entry is the homologue from another species.
In test [2] the target is T1, Sulfonylurea receptors; K-ATP channels. Kind of test: Evaluated for K-ATP activity in terms of change in membrane potential through guinea pig bladder assay. The conditions noted are these: target entry is the homologue from another species. Format: functional, Cavia porcellus.

Some results are limits rather than exact numbers.

Usually EC50 stands for the concentration giving half of the maximal effect. A higher EC50 goes with lower potency in that assay. Regarding `O=C1CCCC2=C1[C@H](c1ccc(Cl)c(Br)c1)C1=C(CCS1(=O)=O)N2`, the values for the EC50 in test [1] and in test [2] were 724 nM and 25.7 nM, respectively.
`CCc1ccc([C@H]2C3=C(CCCC3=O)NC3=C2S(=O)(=O)CC3)cc1[N+](=O)[O-]` showed an EC50 in test [2] of 2290 nM.
Turning to `N#Cc1cccc([C@H]2C3=C(CCCC3=O)NC3=C2S(=O)(=O)CC3)c1`, the EC50 in test [1] is 12900 nM; in test [2] it was 5890 nM.
For the molecule `O=C1CCCC2=C1[C@H](c1ccc(F)c(-c3cccs3)c1)C1=C(CCS1(=O)=O)N2`, in test [2], the EC50 is over 10000 nM.
For the molecule `Cc1ccc([C@H]2C3=C(CCCC3=O)NC3=C2S(=O)(=O)CC3)cc1[N+](=O)[O-]`, the EC50 in test [1] was 537 nM; in test [2], 282 nM.
For `O=C1CCCC2=C1[C@H](c1ccc(F)c(I)c1)C1=C(CCS1(=O)=O)N2` the same measures were 447 nM and 28.2 nM.
Turning to `N#Cc1cc(C2C3=C(CCC3=O)NC3=C2S(=O)(=O)CC3)ccn1` (stereo not drawn), in test [2], the EC50 is 3160 nM.
`O=C1CCCC2=C1[C@H](c1ccc(F)c(C(F)(F)F)c1)C1=C(CCS1(=O)=O)N2`: the concentration for a half-maximal effect (EC50) in test [1] was 977 nM; in test [2], 155 nM.
For the molecule `N#Cc1cc([C@H]2C3=C(CCCC3=O)NC3=C2S(=O)(=O)CC3)ccc1F`, the EC50 in test [2] was 468 nM.
Same read-out and setting: as for `O=C1CCC2=C1C(c1cc(Br)cs1)C1=C(CCS1(=O)=O)N2` (stereo not drawn), the figure is 741 nM.
Turning to `O=S1(=O)CCCC2=C1C(c1ccc(F)c(Br)c1)C1=C(CCCS1(=O)=O)N2`, the 50% effective concentration (EC50) in test [1] is 11700 nM; in test [2] it was 3160 nM.
The molecule `N#Cc1cccc(C2C3=C(CCC3=O)NC3=C2S(=O)(=O)CC3)n1` (stereo not drawn) had a 50% effective concentration (EC50) in test [2] of over 10000 nM.
Take `O=C1CCCC2=C1[C@H](c1ccc(F)c(-c3ccco3)c1)C1=C(CCS1(=O)=O)N2`: the results for the concentration for a half-maximal effect (EC50) in test [1] and in test [2] were 1700 nM and 214 nM, respectively.
Turning to `CC1(C)CC(=O)C2=C(C1)NC1=C([C@@H]2c2ccc(F)c(Br)c2)S(=O)(=O)CC1`, the response in test [2] was half-maximal at 17800 nM (EC50).
Take `O=C1CCCC2=C1C(c1ccc(F)c(Br)c1)C1=C(CCCS1(=O)=O)N2` (stereo in doubt; 17(-)): the values for the EC50 in test [1] and in test [2] were 363 nM and 38 nM, respectively.
For `O=C1CCC2=C1C(c1cncc([N+](=O)[O-])c1)C1=C(CCS1(=O)=O)N2` (stereo not drawn), the EC50 in test [2] is over 10000 nM.
On the same count and under the same terms, as for `CC(=O)c1cc([C@H]2C3=C(CCCC3=O)NC3=C2S(=O)(=O)CC3)ccc1F`, the figure is 1050 nM.
Still for that read-out and setting: as for `N#Cc1ccnc(C2C3=C(CCC3=O)NC3=C2S(=O)(=O)CC3)c1` (stereo not drawn), the figure is over 10000 nM.
Take `O=C1CCCC2=C1[C@H](c1ccc3nonc3c1)C1=C(CCS1(=O)=O)N2`: the EC50 in test [1] was 2340 nM; in test [2], 214 nM.
For `COC(=O)C1=C(C)NC2=C(C1c1ccc(F)c(Br)c1)S(=O)(=O)CC2` (stereo not drawn), the midpoint of the response in test [2], the EC50, lay at 53.7 nM.
On to `O=S1(=O)CCC2=C1C(c1ccc(F)c(Br)c1)C=C(C(F)(F)F)N2` (stereo not drawn), for which the EC50 in test [1] is 2240 nM; in test [2], 447 nM.
Turning to `O=C1CCCC2=C1[C@H](c1cc(Cl)c(Cl)cc1CO)C1=C(CCS1(=O)=O)N2`, in test [2], the 50% effective concentration (EC50) is 61700 nM.
Regarding `CC(=O)C1=C(C)NC2=C(C1c1ccc(F)c(Br)c1)S(=O)(=O)CCC2` (stereo not drawn), the values for the half-maximal effective concentration (EC50) in test [1] and in test [2] were 794 nM and 214 nM, respectively.
Regarding `CC1=C(C(=O)O)C(c2ccc(F)c(Br)c2)C2=C(CCS2(=O)=O)N1` (stereo not drawn), the EC50 in test [1] was 8710 nM; in test [2], 1820 nM.
As to `O=C1CCCC2=C1[C@H](c1ccc(Br)cc1)C1=C(CCS1(=O)=O)N2`, the EC50 in test [2] is over 10000 nM.
Molecule `CCOC(=O)C1=C(C(F)(F)F)NC2=C(C1c1ccc(F)c(Br)c1)S(=O)(=O)CC2` (stereo not drawn) showed a half-maximal effective concentration (EC50) in test [2] of over 10000 nM.
As to `O=C1CCC2=C1[C@@H](c1ccc(F)c(Br)c1)C1=C(CCS1(=O)=O)N2`, the EC50 is 30.9 nM in test [1] and 33.1 nM in test [2].
The corresponding values for `O=C1CCC2=C1C(c1ccc(F)c(Br)c1)C1=C(CCCCS1(=O)=O)N2` (stereo not drawn) are 11700 nM and 2240 nM.
`CC1(C)CCC2=C(C1=O)[C@H](c1ccc(F)c(Br)c1)C1=C(CCS1(=O)=O)N2`: the half-maximal effective concentration (EC50) in test [1] is 5620 nM; in test [2], 83.2 nM.
For the molecule `Cc1cc([C@H]2C3=C(CCCC3=O)NC3=C2S(=O)(=O)CC3)ccc1F`, in test [2], the EC50 is 2820 nM.
The same measure, in the same setting: as for `CC1(C)CC(=O)C2=C(C1)NC1=C([C@H]2c2ccc(F)c(Br)c2)S(=O)(=O)CC1`, the figure is 7080 nM.
For the molecule `O=S1(=O)CCC2=C1C(c1ccc(F)c(Br)c1)C1=C(CCS1(=O)=O)N2`, the concentration for a half-maximal effect (EC50) in test [1] is 269 nM; in test [2], 339 nM.
`O=C1CCC2=C1C(c1ccc(Br)s1)C1=C(CCS1(=O)=O)N2` (stereo not drawn) gave an EC50 in test [2] of 1860 nM.
With `O=C1CCCC2=C1C(c1ccc(F)c(Br)c1)C1=C(CCCS1(=O)=O)N2` (single isomer, unassigned; (+)), the EC50 is 6760 nM in test [1] and 1200 nM in test [2].
`O=C1CCCC2=C1[C@H](c1ccc(F)c(-c3ccccc3)c1)C1=C(CCS1(=O)=O)N2` showed a concentration giving a half-maximal response (EC50) in test [2] of 12000 nM.
On the same count and under the same terms, the figure for `O=C1CCCC2=C1[C@H](c1ccc(F)c(F)c1)C1=C(CCS1(=O)=O)N2` is 2040 nM.
`O=C1CCCC2=C1[C@H](c1ccc(C(F)(F)F)c(Br)c1)C1=C(CCS1(=O)=O)N2`: the EC50 is 9550 nM in test [1] and 219 nM in test [2].
As for `O=C1CCCC2=C1[C@H](c1cccc(Br)c1)C1=C(CCS1(=O)=O)N2`, in test [2], the EC50 is 1510 nM.
With `O=C1CCCC2=C1[C@H](c1ccc(Br)c(Br)c1)C1=C(CCS1(=O)=O)N2`, the values for the EC50 in test [1] and in test [2] were 537 nM and 55 nM, respectively.
For `Cc1ccc([C@H]2C3=C(CCCC3=O)NC3=C2S(=O)(=O)CC3)cc1I` the same measures were 309 nM and 21.9 nM.
For `O=C1CCCC2=C1[C@H](c1ccc3nsnc3c1)C1=C(CCS1(=O)=O)N2`, a half-maximal effect in test [2] (EC50) was put at 2400 nM.
As to `O=C1CCCC2=C1[C@H](c1cc(Br)c(F)cc1O)C1=C(CCS1(=O)=O)N2`, the EC50 is 676 nM in test [1] and 209 nM in test [2].
For `O=C1CCC2=C1[C@H](c1ccc(F)c(Br)c1)C1=C(CCS1(=O)=O)N2` the same measures were 339 nM and 575 nM.
`CC1=C(C#N)C(c2ccc(F)c(Br)c2)C2=C(CCS2(=O)=O)N1` (stereo not drawn) had an EC50 in test [2] of 27.5 nM.
The same measure, in the same setting: as for `Cc1ccc([C@H]2C3=C(CCCC3=O)NC3=C2S(=O)(=O)CC3)cc1S(C)(=O)=O`, the figure is over 10000 nM.
For `O=C1CCC2=C1[C@H](c1ccc(F)c(Br)c1)C1=C(CCCS1(=O)=O)N2`, the 50% effective concentration (EC50) in test [1] is 26300 nM; in test [2], 14800 nM.
The corresponding values for `O=C1CCCC2=C1[C@H](c1cc(Br)ccc1O)C1=C(CCS1(=O)=O)N2` are 20400 nM and 575 nM.
`O=C1CCCC2=C1C(c1ccc(F)c(Br)c1)C1=C(CCCCS1(=O)=O)N2` (stereo not drawn) had a 50% effective concentration (EC50) in test [2] of 3310 nM.
The same measure, in the same setting: as for `CSc1cc([C@H]2C3=C(CCCC3=O)NC3=C2S(=O)(=O)CC3)ccc1F`, the figure is 2570 nM; as for `O=C1CCCC2=C1[C@H](c1ccc(Cl)c(F)c1)C1=C(CCS1(=O)=O)N2`, 1320 nM; as for `CC1(C)CCC(=O)C2=C1NC1=C([C@@H]2c2ccc(F)c(Br)c2)S(=O)(=O)CC1`, over 10000 nM.
`O=C1CCCC2=C1[C@H](c1ccc(F)c(-c3cccnc3)c1)C1=C(CCS1(=O)=O)N2` gave a concentration giving a half-maximal response (EC50) in test [2] of over 10000 nM.
Same read-out and setting: the figure for `CCOC(=O)C1=C(C)NC2=C(C1c1ccc(F)c(Br)c1)S(=O)(=O)CC2` (stereo not drawn) is 501 nM.
The molecule `N#Cc1cccc(C2C3=C(CCCC3=O)NC3=C2C(=O)CCC3)c1` gave a concentration for a half-maximal effect (EC50) in test [1] of 9770 nM.
